Laboratory results reported in patent US8361999B2, “Methods of treating cholesterol gallstone disease with ezetimibe” (Pontificia Universidad Catolica de Chile, priority 2005, dated 2013).

How the values were obtained:
C57BL/6J mice = assay: Plasma cholesterol and plasma lipoprotein profile, protocol #1; format: in vivo, mouse
Protocol: Surgery and sample harvest. The groups were maintained for 14 days (protocol #1) or 30 days (protocol #2) in the different experimental conditions. During the last three days of the protocols, 24 h depositions were collected from the different groups (pool) to determine the fecal excretion of neutral sterols (cholesterol) and acidic sterols (bile salts). At the end of the time established in the protocols, the mice were anesthetized (between 08:00-10:00 AM) with an intraperitoneal pentobarbital injection in doses of 4.5 mg per 100 gr body weight (Amigo et al., 2000) and subjected to surgery. Standardized surgery consists in an extended […] and visualization of abdominal organs, including liver, biliary tree and gallbladder. First, we performed a resection of the gallbladder (cholecystectomy), with the cystic duct previously ligated (Amigo et al., 2002; Amigo et al., 2000; Amigo et al., 2003b). The gallbladder is removed and visually inspected to determine the presence of gallstones. Then, the gallbladder bile is extracted to analyze the presence of cholesterol crystals in the fresh samples under the microscope with polarized light (20×). Aliquots are stored at −20° C. for subsequent chemical analysis. Afterwards, the common biliary duct is cannulated (biliary fistula) with a P-10 polyethylene cannula to collect bile during 15 minutes, determine bile flow by gravimetry (1 g bile=1 ml; bile flow is expressed as μl/min/g of mouse liver) and for posterior chemical analysis of biliary lipids and glutathione, as specified later. […] Then, the liver is removed, weighted, frozen in liquid nitrogen and stored at −80 for subsequent analyses. The plasma is separated by centrifugation at 1,500 rpm and stored at −80° C. for later analysis. The animal protocols were approved by our institution Ethics Committee and the animals were treated according to international care rules for experimental animals.
Intestinal absorption of cholesterol and bile salts. The capacity of Ezetimibe to inhibit cholesterol and bile salt absorption was indirectly determined by quantification of neutral sterols (cholesterol) and acidic sterols (bile acids) present in the feces collected on day 12, 13 and 14 of the experiment (three days). In order to determine cholesterol (neutral sterols) fecal excretion, the feces were dried at 50° C. for three days and then weighted to obtain an average of fecal excretion per day (in grams). The feces were homogenized in a mortar, and 5 ml 2N NaOH:methanol, 1:1 are added per 100 mg (dry weight) aliquots of the homogenate. The sample is vortex and incubated at 60° C. for 1 h for saponification, then it is cooled and 5 ml petroleum ether is added followed by vigorous agitation to obtain the separation of the hydrophobic and hydrophilic phases. The samples are then centrifuged at 1,000 rpm for 10 minutes and the hydrophobic phase (upper layer) is recovered. Second and third extractions are performed by adding 5 ml petroleum ether to the hydrophilic phase. The hydrophobic phases are dried under gaseous nitrogen and the lipids are resuspended in 1 ml chloroform. 50 μl aliquots, in duplicate, are dried at room temperature, and total cholesterol is quantified according to the enzymatic method described above. The values obtained are expressed as μmoles cholesterol/day/100 g of mouse (Miettinen et al., 1965). […]

GGCS = assay: Hepatic expression of gamma-gluthamylcystein-synthetase (Northern blot); format: in vivo, mouse; conditions: 14 days
Protocol: Expression of Specific Bile Salts (Ntcp, Bsep), Phospholipid (MDR2) and Organic Anions or Glutathione (MRP2); And Determination of Glutathione Synthesis (Gluthamylcystein-Synthetase (GGCS)).
Total RNA extraction. 80 mg hepatic tissue frozen at −70° C. was homogenized in 800 μl solution D, following the method described by Chomczynski and Sacchi, 1987. The RNA concentration was calculated by measuring the absorbance at 260 nm and its purity by the ratio OD260/OD280. The samples are stored at −20° C. RNA electrophoresis. 10 μg of total RNA are dried under gaseous N2 or vacuum for 10 minutes. 10 μl loading buffer were added, and the samples heated to 65° C., loaded into a denaturing 1% agarose/formaldehyde gel and run at 100 volts for 4 hours. The RNA integrity was determined by the clear visualization of the 28 S and 18 S ribosomal RNAs (FIG. 8).
Northern Blot and hybridization with radioactive probes. The gel with the RNA samples is washed with DEPC H2O for 10 minutes to eliminate formaldehyde and then incubated for 20 minutes with 50 mM NaOH for partial RNA hydrolysis. After a 10 minute wash with DEPC H2O to eliminate NaOH, the samples are transferred from the gel to Nylon membranes (Hybond-N, Amersham Pharmacia) over night by a capillary system. […]
Probe labeling by “de novo synthesis”. […] The percentage of incorporated radioactivity into the probe was always over 60%. […]

O=C1[C@H](CC[C@H](O)c2ccc(F)cc2)[C@@H](c2ccc(O)cc2)N1c1ccc(F)cc1 [Ezetimibe, (−)-1-(4-fluorophenyl)-(3R)-[3-(4-fluorophenyl)-(.S)-hydroxypropyl]-(4S)-(4-hydroxyphenyl)-2-azetidinone]
Plasma Cholesterol (C57BL/6J mice; Chow + Ezetimibe, 14 days): 86.21 ± 13.8 mg/dL | Plasma Cholesterol (C57BL/6J mice; Lithogenic + Ezetimibe, 14 days): 161.38 ± 38.96 mg/dL | plasma lipoprotein profile, ezetimibe groups vs controls (C57BL/6J mice; chow and lithogenic diets, 14 days (FIG. 2)): did not show significant differences | concentration of total cholesterol in plasma, with vs without ezetimibe (C57BL/6J mice; control diet, 14 days): similar | increase of plasma cholesterol concentration, with vs without ezetimibe (C57BL/6J mice; lithogenic diet, 14 days): similarly | hepatic expression of GGCS, lithogenic diet plus Ezetimibe vs lithogenic diet (GGCS): no significant differences
